In assay [1] the test system is RSV. The following applies: high-risk infants; cited from earlier work.
In assay [2] the test system is HIV. The note with it: standard viral passaging, escalating inhibitor; cited from earlier work.
The target in assay [3] is IZN45 Full Mut (Human respiratory syncytial virus B, UniProt O36634, A170W/A177W/D194W/G184W/N197K). The note with it: IZN45 Full Mut / IZN45_Mut, SPR. An excerpt:
IZN45 N-trimer mimic comprises the IZ domain, a highly soluble, designed coiled-coil that helps solubilize the N-trimer, along with the C-terminal (bottom) 45 residues of the RSV N-trimer. IZN45 encompasses the full ordered portion of the N-trimer except for three N-terminal residues (removed to maintain a continuous heptad repeat with the IZ domain). The interactions between 35-residue RSV C-peptides, T108 and T118 (Lambert et al., 1996, Proc. Natl. Acad. Sci. USA 93:2186-2191), and IZN45 was examined by surface plasmon resonance (SPR). SPR is a gold standard assay to measure the kinetics and affinity of biological interactions. […] The Biotinylated L-form of RSV target IZN45 was captured onto one lane of a NeutrAvidin coated SPR chip. A mutant version of IZN45 containing four mutated residues along the N-trimer groove designed to disrupt binding (IZN45 Full Mut, negative control) was captured onto a separate lane of the NeutrAvidin chip. T118, corresponding to the C-terminal portion of the RSV F ectodomain, which is known to interact with the RSV N-trimer groove, was flowed over the various surfaces. […] The surfaces were regenerated with a detergent (0.1% SDS) after each injection of analyte. Various concentrations of T118 were measured in duplicate or triplicate injections. D-peptide interactions with IZN45 and IZN45-Full Mut surfaces were also measured using this method. […]

Assay [4] concerns RSVA-IZN45 (SEQ ID NO: 34). The note with it: Table 8 Result column. The text has this: AC-K-(PEG4)DDG-RSVP32 (SEQ ID NO:142) is an affinity matured RSV N-trimer binder identified from phage display and represents an optimized binding solution from a disulfide constrained CX10C (disulfide constrained 10-mer) library based on the 20 natural amino acids. […] Using the co-crystal structure of RSVP32 (SEQ ID NO:31) and RSVA-IZN21 (SEQ ID NO:34), a molecular-modeling suite (ICM-Pro, MolSoft LLC) was used to model various natural and non-natural amino acid substitutions and calculate binding energies. The following parameters were used to calculate binding energy: electrostatic boundary element energy, H-bonds, solvation energy estimated as surface tension, and side-chain entropy.

The target in assay [5] is T1, RSV-A F protein (Human respiratory syncytial virus A, UniProt P03420).
T1 construct: expressed in transfected cells; host or cells: 293 T cells
The assay is described as follows: cell-based. The method, then:
The RSV Syncytia reduction assay was used to evaluate D-peptide inhibitors of RSV entry (IC50). In brief, 293 T cell were plated in a 96-well plate and a 6-well plate. The cells in the 96-well plate were co-transfected with DNA encoding the RSV F protein (or RSV G protein as a negative control) and DNA encoding firefly luciferase downstream of multiple GAL4 binding sites (CheckMate Mammalian Two-Hybrid system, Promega). These cells were designated the effector cells. The cells in the 6-well plate were transfected with GAL4:Id and VP16:MyoD fusion constructs, which interact and drive gene expression in the presence of GAL4 binding sites. These cells were the target cells. At 24 hours post-transfection, the media is removed from the effector cells and D-peptide inhibitors at 2× concentration (diluted in fresh media) were added. Also at 24 hours post-transfection, the target cells are washed with PBS, gently dissociated from the 6-well plate using Versene (0.48 mM EDTA in PBS), and overlaid (at equal volume) onto the effector cells containing 2× inhibitor. At 48 h post-transfection, the cells are lysed using Glo Lysis Buffer (Promega). Bright Glo luciferase assay substrate is added and luminescent signal from expressed luciferase is measured. Luciferase is only expressed in effector cells that fuse (form syncytia) with target cells.

Assay [6] has as its target T2, RSV-B/IZN45 (Human respiratory syncytial virus B, UniProt O36634).
T2 construct: N-trimer Mimics Synthesized; made in house; host or cells: chemical peptide synthesis
Description: biochemical. In kind it is binding. The note with it: RSV-B/IZN45. The text has this:
(§1) IZN45 N-trimer mimic comprises the IZ domain, a highly soluble, designed coiled-coil that helps solubilize the N-trimer, along with the C-terminal (bottom) 45 residues of the RSV N-trimer. IZN45 encompasses the full ordered portion of the N-trimer except for three N-terminal residues (removed to maintain a continuous heptad repeat with the IZ domain). The interactions between 35-residue RSV C-peptides, T108 and T118 (Lambert et al., 1996, Proc. Natl. Acad. Sci. USA 93:2186-2191), and IZN45 was examined by surface plasmon resonance (SPR). SPR is a gold standard assay to measure the kinetics and affinity of biological interactions. […] The Biotinylated L-form of RSV target IZN45 was captured onto one lane of a NeutrAvidin coated SPR chip. A mutant version of IZN45 containing four mutated residues along the N-trimer groove designed to disrupt binding (IZN45 Full Mut, negative control) was captured onto a separate lane of the NeutrAvidin chip. T118, corresponding to the C-terminal portion of the RSV F ectodomain, which is known to interact with the RSV N-trimer groove, was flowed over the various surfaces. […] The surfaces were regenerated with a detergent (0.1% SDS) after each injection of analyte. Various concentrations of T118 were measured in duplicate or triplicate injections. D-peptide interactions with IZN45 and IZN45-Full Mut surfaces were also measured using this method.
(§2) Peptides from the ‘winning’ phage clones from each library were synthesized as D-peptides. If solubility of the peptides was limited, N- or C-terminal charged residue(s) (e.g., lysine) were attached as necessary as previously described for HIV peptides in Eckert et al., 1999, Cell 99:103-15, incorporated by reference in its entirety. Binding affinity and kinetics of the D-peptide inhibitors to the IZN45 and IZN45 mutants was characterized by SPR (Biacore 3000), using methods as described in Welch et al., 2007, Proc. Natl. Acad. Sci. USA 104:16828-33, incorporated by reference in its entirety.

Assay [7] has as its target T3, RSV-A/IZN45 (Human respiratory syncytial virus A, UniProt P03420).
T3 construct: N-trimer Mimics Synthesized; made in house; host or cells: chemical peptide synthesis
The assay is described as follows: SPR binding to RSV-A IZN45 N-trimer mimic. The following applies: Kd, RSV-A/IZN45.
Description: as §1, §2

The target in assay [8] is IZN45. The assay is described as follows: SPR binding to IZN45 N-trimer mimic, subtype not stated. Set-up: species or system RSV.
Description: as §1, §2
For orientation: Surface plasmon resonance follows binding to a sensor surface in real time, without labels.

Setting [9] is: (L) inhibitors of RSV, controls for D-peptide studies, assay not stated in Table 6, read-out: IC50.
The mark [10] stands for this setting: IC50, (L) inhibitors of RSV, controls for D-peptide studies, assay not stated in Table 6.
[11] abbreviates: subsequent trimer/compound made from peptide, SPR.
[12] abbreviates: running text/figure legend, IZN45 subtype not stated.
[13] abbreviates: IC50, subsequent trimer/compound made from peptide, syncytia reduction assay using RSV-A F protein.
Setting [14] is: synthesized peptide, KD determined by SPR.

We go through 16 compounds from patent US10765754B2, “Compositions and methods related to inhibition of respiratory syncytial virus entry” (priority 2015, dated 2020).

The term IC50 denotes the midpoint of a concentration-inhibition curve. For orientation: Kd means the equilibrium constant for the complex coming apart. A high value points to weaker binding.

Read-outs that look alike come from different tables or passages of the source. Starred links: 1 amine or outer side, 2 acyl side, 3 side chain; linkers in the order of their positions; H or OH if unused. Positions of bridges follow the written chain, without caps; N, C: chain ends. Non-standard residues stand in square brackets, D forms with d. Residues, ends and D or L forms follow the SMILES beside them. Chains are numbered I, II in the order given. X1 = NCCOCCOCCOCCOCCOCCOCCOCCOCCOCCOCCOCCOCCOCCOCCOCCOCCOCCOCCOCCOCCOCCOCCOCCOCCOCCOCCOCCOCCC(=O)NC(CCC(=O)[*:1])(CCC(=O)[*:2])CCC(=O)[*:3]; PEG6 = NCCOCCOCCOCCOCCOCCOCCC(=O)O

Take “Synagis: monoclonal antibody (mAb) given prophylactically throughout RSV season”: the reduction of hospitalizations in assay [1] is given as 55%.

As to enfuvirtide, the “time in which resistance develops” value in assay [2] was 2-3 weeks.

Turning to “T118: 35-residue RSV C-peptide corresponding to the C-terminal portion of the RSV F ectodomain (FDASISQVNEKINQSLAFIRKSDELLHNVNAGKST)”, in assay [3], the “binding to mutant control target” value is reported as “did not bind”.

In the case of “Ac-GECVN(HRG)PEWLLDWCGT-NH2 [SEQ ID NO: 147]”, in assay [4], the “Decreased potency compared to RSVP32” value is on record as 2.6-fold compared and the potency is on record as 65 nM.

As for Ac-GEVCRPEWLLDWCGT-NH2 [SEQ ID NO: 159], in assay [4], the “Decreased potency compared to RSVP32” value is 14.4-fold and the potency amounted to 360 nM.

Compound GECVNRPEWLLDWCGT [RSVP32] yielded a potency in assay [4] of 25 nM.

In the case of “LEGEVNKIKSALLSTNKAVVSLSNGVSVLTSKVLDLKNYIDKQLLPIVNIKKEIEAIKKEQEAIKKKIEAI-GKG-(Glu-biotinyl-PEG)-NH2 [RSVA N49IZ-GKG(Glu-Biotinyl-PEG)]”, the 50% inhibitory concentration (IC50) in assay [5] (setting [9]) came to 102 nM.

As to “H-YGFDASISQVNEKINQSLAFIRKSDELLHNVNAGKST-NH2 [YG-T118]”, the half-inhibitory concentration (IC50) in assay [5] (setting [10]) was found to be 8000 nM.

As for “I: Ac-[dK][PEG6]G[dA][dC][dR][dN][dE][dP][dH][dW][dL][dL][dD][dW][dC][dA][dA]-NH2 / II: Ac-[dK][PEG6]G[dA][dC][dR][dN][dE][dP][dH][dW][dL][dL][dD][dW][dC][dA][dA]-NH2 / III: Ac-[dK][PEG6]G[dA][dC][dR][dN][dE][dP][dH][dW][dL][dL][dD][dW][dC][dA][dA]-NH2 (linker I:1-II:1-III:1 via X1; disulfide I:5-I:16, II:5-II:16, III:5-III:16; C-terminus assumed) [Ac-K(PEG6)-RSVP20-trimer]”, the Kd in assay [6] (setting [11]) was 1.7 nM; in assay [7] (setting [11]) it was 0.3 nM; in assay [8] (setting [12]) it was 0.0003 µM. Further, the “improvement in binding affinity of trimer over the corresponding monomer” value in assay [8] (trimerization) is recorded as 10,000 fold.

For “I: Ac-YGFDASISQVNEKINQSLAFIRKSDELLHNVNAGKSTG[PEG6]KGKG-NH2 / II: Ac-YGFDASISQVNEKINQSLAFIRKSDELLHNVNAGKSTG[PEG6] / III: Ac-YGFDASISQVNEKINQSLAFIRKSDELLHNVNAGKSTG[PEG6] (amide I:40-II:C, I:42-III:C) [YG-T118-Tricasso]”, 650 nM corresponded to half-maximal inhibition in assay [5] (setting [10]) (IC50).

As to “I: Ac-[dK][PEG6]G[dH][dA][dC][dV][dN][dR][dP][dE][dW][dL][dL][dD][dW][dC]G[dR]G[dR][dR]-NH2 / II: Ac-[dK][PEG6]G[dH][dA][dC][dV][dN][dR][dP][dE][dW][dL][dL][dD][dW][dC]G[dR]G[dR][dR]-NH2 / III: Ac-[dK][PEG6]G[dH][dA][dC][dV][dN][dR][dP][dE][dW][dL][dL][dD][dW][dC]G[dR]G[dR][dR]-NH2 (linker I:1-II:1-III:1 via X1; disulfide I:6-I:17, II:6-II:17, III:6-III:17) [Ac-K(PEG6)G-RSVP26-GRR-trimer]”, in assay [5] (setting [13]), the half-inhibitory concentration (IC50) amounted to 5500 nM.

The compound “I: Ac-[dS][dM][dC][dV][dN][dR][dP][dE][dW][dL][dL][dD][dW][dC]G[dT]G[dD][dD][PEG6][dK]-NH2 / II: Ac-[dS][dM][dC][dV][dN][dR][dP][dE][dW][dL][dL][dD][dW][dC]G[dT]G[dD][dD][PEG6][dK]-NH2 / III: Ac-[dS][dM][dC][dV][dN][dR][dP][dE][dW][dL][dL][dD][dW][dC]G[dT]G[dD][dD][PEG6][dK]-NH2 (disulfide I:3-I:14, II:3-II:14, III:3-III:14; linker I:21-II:21-III:21 via X1; C-terminus assumed) [Ac-RSVP24-GDD(PEG6)K-trimer]” registered an IC50 in assay [5] (setting [13]) of 4600 nM.

Turning to “(biotin-PEG2)GKG-IKKEIEAIKKEQEAIKKKIEALEGEVNKIKSALLSTNKAVVSLSNGVSVLTSKVLDLKNYIDKQLLPIV-NH2 [(Biotin-PEG2)GKG-RSVA IZN48]”, the IC50 in assay [5] (setting [9]) was found to be 215 nM.

On to “Ac-GECVNQPEWLLDWCGT-NH2 [SEQ ID NO: 151]”, for which, in assay [4], the “Decreased potency compared to RSVP32” value was ~2-fold compared and the potency turned out to be 53 nM.

Consider `CC(=O)N[C@H](CCCCN)C(=O)NCCOCCOCCOCCOCCOCCOCCC(=O)NCC(=O)N[C@H](C)C(=O)N[C@@H]1CSSC[C@H](C(=O)N[C@H](C)C(=O)N[C@H](C)C(N)=O)NC(=O)[C@@H](Cc2c[nH]c3ccccc23)NC(=O)[C@@H](CC(=O)O)NC(=O)[C@@H](CC(C)C)NC(=O)[C@@H](CC(C)C)NC(=O)[C@@H](Cc2c[nH]c3ccccc23)NC(=O)[C@@H](Cc2c[nH]cn2)NC(=O)[C@H]2CCCN2C(=O)[C@@H](CCC(=O)O)NC(=O)[C@@H](CC(N)=O)NC(=O)[C@@H](CCCNC(=N)N)NC1=O` [Ac-K(PEG6)-RSVP20] (Ac-[dK][PEG6]G[dA][dC][dR][dN][dE][dP][dH][dW][dL][dL][dD][dW][dC][dA][dA]-NH2; disulfide 5-16), for which the Kd was found to be 4100 nM in assay [6] (setting [14]); 3700 nM in assay [7] (setting [14]); 3.7 µM in assay [8] (b401, printed without unit); 3.7 µM in assay [8] (setting [12]).

In assay [5] (setting [10]), “Ac-IKKEIEAIKKEQEAIKKKIEAIEKEVNKIKSALLSTNKAVVSLSNGVSVLTSKVLDLKNYIDKQLLPIV-NH2 [Ac-RSV-A IZN45]” showed an IC50 of 6 nM.
